From patent US11845760B2, “PRMT5 inhibitors” (AMGEN INC., priority 2020, dated 2023)
Like-named read-outs stand apart in the source and are kept apart here.

Columns and labels:
HCT116 WT cells = assay: HCT116 WT cell line proliferation (CellTiter-Glo cell viability, 6 days); format: cell-based; conditions: HCT116 WT (parent) cells, 6 days of treatment, CellTiter-Glo cell viability, read-out: HCT-116 WT IC50
Outline: (§1)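 Isogenic HCT116 pair (both MTAP alleles knocked out vs parent) in RPMI 1640 + 10% FBS, seeded overnight at 37° C, 5% CO2, then exposed 6 days to 8- or 9-point 1:3 dilutions from 1 or 10 μM. CellTiter-Glo luminescence; IC50 from sigmoidal fit, Hill slope fixed −1, top 100%, or 4-parameter logistic.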

HCT116 MTAP null cells = assay: HCT116 MTAP null cell line proliferation (CellTiter-Glo cell viability, 6 days); format: cell-based; conditions: HCT116 MTAP null cells, 6 days of treatment, CellTiter-Glo cell viability, read-out: HCT-116 MTAP null IC50
Outline: as §1

IC50 (HCT116 WT cells; Homo sapiens, HCT-116, 144 h) [nM]	IC50 (HCT116 MTAP null cells; HCT116-MTAP null, 144 h) [nM]	IC50 (HCT116 WT cells) [nM]	IC50 (HCT116 MTAP null cells) [nM]	Compound
509	30			C[C@@H]1COC[C@H](c2ccc(C(F)(F)F)cn2)N1C(=O)c1cc2c3c(c(N)nc2cn1)COC3 [Example 522, (4-amino-1,3-dihydrofuro[3,4-c][1,7]naphthyridin-8-yl)((3R,5S)-3-methyl-5-(5-(trifluoromethyl)-2-pyridinyl)-4-morpholinyl)methanone]
4800	> 1000			Nc1nc2ccc(C(=O)N3CCCC[C@@H]3c3ccc(C(F)(F)F)cc3)cc2c2ccsc12 (single isomer, unassigned) [Example 490]
548	23			Cn1ncc2c3cc(C(=O)N4CCOC[C@@H]4c4ccc(S(F)(F)(F)(F)F)cc4)c(Cl)cc3nc(N)c21 [Example 419, (4-amino-7-chloro-3-methyl-3H-pyrazolo[3,4-c]quinolin-8-yl)((3S)-3-(4-(pentafluoro-lambda~6~-sulfanyl)phenyl)-4-morpholinyl)methanone]
11600	819			Nc1nc2ccc(C(=O)N3CCOC[C@@H]3c3ccc(C(F)(F)F)cc3)cc2c2cncnc12 [Example 502, (5-aminopyrimido[4,5-c]quinolin-9-yl)((3S)-3-(4-(trifluoromethyl)phenyl)-4-morpholinyl)methanone]
7490	> 1000			Nc1nc2ccc(C(=O)N3CCOC[C@@H]3c3ccc(C(F)(F)F)cc3)cc2c2ccsc12 (single isomer, unassigned) [Example 488]
> 10000	656			Nc1nc2ccc(C(=O)N3CCOC[C@@H]3c3ccc(OC(F)(F)F)cc3)cc2c2c1COCC2 [Example 484, (5-amino-2,4-dihydro-1H-pyrano[3,4-c]quinolin-9-yl)-[(3S)-3-[4-(trifluoromethoxy)phenyl]morpholin-4-yl]methanone]
503	27			C[C@@H]1COC[C@H](c2ccc(C(F)(F)F)cc2)N1C(=O)c1ccc2nc(N)c3c(c2c1)COC3 [Example 527, (4-amino-1,3-dihydrofuro[3,4-c]quinolin-8-yl)((3R,5S)-3-methyl-5-(4-(trifluoromethyl)phenyl)-4-morpholinyl)methanone]
1750	92			COC(=O)[C@@H]1CN(C(=O)c2cc3c4c(c(N)nc3cc2F)COC4)C[C@H]1c1ccc(C(F)(F)F)cc1 (single isomer, unassigned) [Example 480]
		14600	421	(4-amino-1-methyl-1H- pyrazolo[4,3- c][1,7]naphthyridin-8- yl)((3R)-3-(4- (trifluoromethyl)phenoxy)-1- pyrrolidinyl)methanone and (4-amino-1-methyl-1H- pyrazolo[4,3- c][1,7]naphthyridin-8- yl)((3S)-3-(4- (trifluoromethyl)phenoxy)-1- pyrrolidinyl)methanone [Example 433]

The next lines start with the compound.

Compound	IC50 (HCT116 WT cells; Homo sapiens, HCT-116, 144 h) [nM]	IC50 (HCT116 MTAP null cells; HCT116-MTAP null, 144 h) [nM]	IC50 (HCT116 WT cells) [nM]	IC50 (HCT116 MTAP null cells) [nM]
C[C@@H]1COC[C@H](c2ccc(C(F)(F)F)cc2)N1C(=O)c1cc2c(cc1F)nc(N)c1c2cnn1C [Example 531, (4-amino-7-fluoro-3-methyl-3H-pyrazolo[3,4-c]quinolin-8-yl)((3R,5S)-3-methyl-5-(4-(trifluoromethyl)phenyl)-4-morpholinyl)methanone]	215	13		
C[C@H]1COC[C@@H](c2ccc(Cl)nc2)N1C(=O)c1cc2c3c(c(N)nc2cn1)COC3 (racemic) [Example 311, (4-amino-1,3-dihydrofuro[3,4-c][1,7]naphthyridin-8-yl)((3R,5S)-3-(6-chloro-3-pyridinyl)-5-methyl-4-morpholinyl)methanone and (4-amino-1,3-dihydrofuro[3,4-c][1,7]naphthyridin-8-yl)((3S,5R)-3-(6-chloro-3-pyridinyl)-5-methyl-4-morpholinyl)methanone]	6740	148		
Cc1nc2nc(N)c3cnn(C)c3c2cc1C(=O)N1CCOC[C@@H]1c1ccc(C(F)(F)F)cc1 [Example 415, (4-amino-1,7-dimethyl-1H-pyrazolo[4,3-c][1,8]naphthyridin-8-yl)((3S)-3-(4-(trifluoromethyl)phenyl)-4-morpholinyl)methanone]	3340	73		
C[C@H]1OCc2c1c(N)nc1ccc(C(=O)N3CC(c4ccccc4)C4CCCC43)cc21 (stereo partly drawn) [Example 395, ((3R)-4-amino-3-methyl-1,3-dihydrofuro[3,4-c]quinolin-8-yl)(3-phenylhexahydrocyclopenta[b]pyrrol-1(2H)-yl)methanone]	8240	303		
Nc1nc2cnc(C(=O)N3CCOC[C@H]3c3cnc(C(F)(F)F)nc3)cc2c2c1COC2 (single isomer, unassigned) [Example 611]	> 10000	> 1000		
C[C@H]1COC[C@@H](c2ccc(OC(F)(F)F)cn2)N1C(=O)c1cc2c3c(c(N)nc2cc1F)COC3 (racemic) [Example 378, (4-amino-7-fluoro-1,3-dihydrofuro[3,4-c]quinolin-8-yl)((3R,5S)-3-methyl-5-(5-(trifluoromethoxy)-2-pyridinyl)-4-morpholinyl)methanone and (4-amino-7-fluoro-1,3-dihydrofuro[3,4-c]quinolin-8-yl)((3S,5R)-3-methyl-5-(5-(trifluoromethoxy)-2-pyridinyl)-4-morpholinyl)methanone]	190	15		
Nc1nc2cnc(C(=O)N3CCOC[C@@H]3c3ccc(C(F)(F)F)cc3)cc2c2c1CCO2 [Example 404, (4-amino-2,3-dihydrofuro[3,2-c][1,7]naphthyridin-8-yl)((3S)-3-(4-(trifluoromethyl)phenyl)-4-morpholinyl)methanone]	9760	872		
CC(C)C[C@@H]1COC[C@H](c2ccc(C(F)(F)F)cc2)N1C(=O)c1cc2c3c(c(N)nc2cn1)COC3 (single isomer, unassigned) [Example 566]	> 10000	> 10000		
C[C@@H]1COC[C@H](c2ccc(OC(F)(F)F)cc2)N1C(=O)c1cc2c3c(c(N)nc2cc1Cl)COC3 [Example 530, (4-amino-7-chloro-1,3-dihydrofuro[3,4-c]quinolin-8-yl)((3R,5S)-3-methyl-5-(4-(trifluoromethoxy)phenyl)-4-morpholinyl)methanone]	60	4		
C[C@@H]1COC[C@H](c2ccc(OC(F)F)nn2)N1C(=O)c1cc2c3c(c(N)nc2cn1)COC3 [Example 554, (4-amino-1,3-dihydrofuro[3,4-c][1,7]naphthyridin-8-yl)((3S,5R)-3-(6-(difluoromethoxy)-3-pyridazinyl)-5-methyl-4-morpholinyl)methanone]	1100	28		
CCOc1ccc([C@@H]2COC[C@H](C)N2C(=O)c2cc3c4c(c(N)nc3cc2Cl)COC4)nn1 (racemic) [Example 322, (4-amino-7-chloro-1,3-dihydrofuro[3,4-c]quinolin-8-yl)((3R,5S)-3-(6-ethoxy-3-pyridazinyl)-5-methyl-4-morpholinyl)methanone and (4-amino-7-chloro-1,3-dihydrofuro[3,4-c]quinolin-8-yl)((3S,5R)-3-(6-ethoxy-3-pyridazinyl)-5-methyl-4-morpholinyl)methanone]	279	6		
C[C@H]1COC[C@@H](c2ccc(Cl)nc2)N1C(=O)c1cc2c3c(c(N)nc2cc1F)COC3 (racemic) [Example 313, (4-amino-7-fluoro-1,3-dihydrofuro[3,4-c]quinolin-8-yl)((3R,5S)-3-(6-chloro-3-pyridinyl)-5-methyl-4-morpholinyl)methanone and (4-amino-7-fluoro-1,3-dihydrofuro[3,4-c]quinolin-8-yl)((3S,5R)-3-(6-chloro-3-pyridinyl)-5-methyl-4-morpholinyl)methanone]	850	33		
Nc1nc2ccc(C(=O)N3CCOC[C@@H]3c3ccc(C(F)(F)F)cn3)cc2c2c1COC2 (single isomer, unassigned) [Example 570]	8760	221		
Nc1nc2cnc(C(=O)N3CCOC[C@@H]3c3c(F)cc(Br)cc3F)cc2c2c1COC2 (single isomer, unassigned) [Example 602]	10000	149		
Cn1ncc2c(N)nc3cc(F)c(C(=O)N4CCOC[C@@H]4c4ccc(C(F)(F)F)cc4)cc3c21 [Example 420, (4-amino-7-fluoro-1-methyl-1H-pyrazolo[4,3-c]quinolin-8-yl)((3S)-3-(4-(trifluoromethyl)phenyl)-4-morpholinyl)methanone]	338	12		
C[C@H]1OCc2c1c(N)nc1cnc(C(=O)N3CCOC[C@@H]3c3ccc(C(F)(F)C(F)(F)F)cc3)cc21 (single isomer, unassigned) [Example 454]	778	24		
C[C@H]1OCc2c1c(N)nc1ccc(C(=O)N3CC[C@](O)(c4ccc(C(F)(F)F)cc4)C3)cc21 [Example 435, ((3R)-4-amino-3-methyl-1,3-dihydrofuro[3,4-c]quinolin-8-yl)((3S)-3-hydroxy-3-(4-(trifluoromethyl)phenyl)-1-pyrrolidinyl)methanone]	3760	251		
Cn1ncc2c(N)nc3cc(F)c(C(=O)N4CC[C@H](c5ccc(C(F)(F)F)cc5)C4)cc3c21 [Example 436, (4-amino-7-fluoro-1-methyl-1H-pyrazolo[4,3-c]quinolin-8-yl)((3R)-3-(4-(trifluoromethyl)phenyl)-1-pyrrolidinyl)methanone]	1720	29		
CC(C)C[C@H]1COC[C@@H](c2ccc(C(F)(F)F)cc2)N1C(=O)c1cc2c3c(c(N)nc2cn1)COC3 (single isomer, unassigned) [Example 567]	> 10000	2140		
